For this assay, the target named is T1, R.intestinalis-GH32 (Roseburia intestinalis, UniProt C7G9C0).
T1 construct: gene sacC; expressed from pET28a in E. coli BL21(DE3), cell-free extract; intracellular; cluster 3, only GH32 of the strain
T1 sequence (C7G9C0 1-563): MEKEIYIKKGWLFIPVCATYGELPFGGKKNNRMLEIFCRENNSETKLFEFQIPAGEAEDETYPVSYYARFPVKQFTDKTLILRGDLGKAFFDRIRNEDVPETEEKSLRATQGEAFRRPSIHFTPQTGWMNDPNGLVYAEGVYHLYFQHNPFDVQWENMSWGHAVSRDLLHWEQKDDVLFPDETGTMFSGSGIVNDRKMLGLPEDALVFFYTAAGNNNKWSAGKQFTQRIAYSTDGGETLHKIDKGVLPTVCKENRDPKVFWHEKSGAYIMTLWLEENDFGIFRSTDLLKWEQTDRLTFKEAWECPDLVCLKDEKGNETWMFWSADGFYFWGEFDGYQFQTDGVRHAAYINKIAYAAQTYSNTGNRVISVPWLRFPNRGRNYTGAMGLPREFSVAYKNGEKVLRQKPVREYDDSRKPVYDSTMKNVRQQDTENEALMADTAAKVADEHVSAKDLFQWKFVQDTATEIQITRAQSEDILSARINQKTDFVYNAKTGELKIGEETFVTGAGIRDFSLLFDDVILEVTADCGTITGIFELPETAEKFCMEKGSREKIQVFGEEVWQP
The assay is described as follows: degradation by E. coli cell-free extract. It is filed as biochemical.

Regarding `OC[C@H]1O[C@@](CO)(OC[C@@]2(O[C@H]3O[C@H](CO)[C@@H](O)[C@H](O)[C@H]3O)O[C@H](CO)[C@@H](O)[C@@H]2O)[C@@H](O)[C@@H]1O` [kestose], the “degradation by E. coli cell-free extract” value is “cell-free extracts containing R.intestinalis-GH32”.
For `OC[C@H]1O[C@@](CO)(OC[C@@]2(OC[C@@]3(O[C@H]4O[C@H](CO)[C@@H](O)[C@H](O)[C@H]4O)O[C@H](CO)[C@@H](O)[C@@H]3O)O[C@H](CO)[C@@H](O)[C@@H]2O)[C@@H](O)[C@@H]1O` [nystose] the value was “cell-free extracts containing R.intestinalis-GH32”.

These data come from publication PMC7833758, “Characterization of fructooligosaccharide metabolism and fructooligosaccharide-degrading enzymes in human commensal butyrate producers” (Gut Microbes, 2021).
